Target: T1, human TREK-1 (Homo sapiens, UniProt O95069)
T1 construct: expressed in transfected cells
T1 sequence (O95069 1-426): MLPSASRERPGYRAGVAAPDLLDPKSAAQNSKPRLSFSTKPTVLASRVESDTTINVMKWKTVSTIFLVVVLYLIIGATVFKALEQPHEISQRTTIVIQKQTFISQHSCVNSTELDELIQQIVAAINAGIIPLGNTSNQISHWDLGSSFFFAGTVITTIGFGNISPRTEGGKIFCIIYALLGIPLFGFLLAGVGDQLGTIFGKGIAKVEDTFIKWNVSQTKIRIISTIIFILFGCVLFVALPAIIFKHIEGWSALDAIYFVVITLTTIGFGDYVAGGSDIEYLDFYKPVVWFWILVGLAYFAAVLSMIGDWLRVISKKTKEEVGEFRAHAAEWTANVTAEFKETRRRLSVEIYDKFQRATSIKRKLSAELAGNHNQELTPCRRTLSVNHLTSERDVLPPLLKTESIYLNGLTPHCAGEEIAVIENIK
Experiment: TREK-1 Thallium (Tl+) flux assay, Method 1
Assay type: cell-based
Details: TREK-1 Thallium (Tl+) flux assay; no *^12 (Method 2) mark on these rows
Outline: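 Readout: Thallos fluorescence ratio, taken 25 s post-thallium relative to the pre-thallium baseline average, then converted to % inhibition. Cells were CHO-K1 stably expressing human TREK-1, dye-loaded and exposed to test compound (vehicle 0.3% DMSO) for 10 min prior to thallium stimulation.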

| Structure (SMILES) | IC50 [nM] |
| --- | --- |
| CC(=O)N1CC[C@@H](n2ncc(Cl)c2C(=O)Nc2ncc(C#Cc3ccccc3)cc2C)C1 [Compound 202, (R)-1-(1-acetylpyrrolidin-3-yl)-4-chloro-N-(3-methyl-5-(phenylethynyl)pyridin-2-yl)-1H-pyrazole-5-carboxamide] | 310 |
| CC(=O)N1CC[C@@H](n2ncc(Cl)c2C(=O)Nc2ncc(C#Cc3ccccc3)cc2F)C1 [Compound 203, (R)-1-(1-acetylpyrrolidin-3-yl)-4-chloro-N-(3-fluoro-5-(phenylethynyl)pyridin-2-yl)-1H-pyrazole-5-carboxamide] | 310 |
| Cc1cc(C#Cc2cccs2)cnc1NC(=O)c1c(Cl)cnn1[C@H]1C[C@@H]2CN(C(=O)C3CC3)C[C@@H]2C1 [Compound 204, 4-chloro-1-[(3aR,5s,6aS)-2-(cyclopropanecarbonyl)octahydrocyclo-penta[c]pyrrol-5-yl]-N-{3-methyl-5-[(thiophen-2-yl)ethynyl]pyridin-2-yl}-1H-pyrazole-5-carboxamide] | 310 |
| Cc1cc(C#Cc2cccc(F)c2)cnc1NC(=O)c1c(Cl)cnn1C1CCN(C(=O)C(C)(C)C)CC1 [Compound 205, 4-chloro-N-(5-((3-fluorophenyl)ethynyl)-3-methylpyridin-2-yl)-1-(1-pivaloylpiperidin-4-yl)-1H-pyrazole-5-carboxamide] | 310 |
| O=C(Nc1ncc(C#Cc2cccs2)cc1F)c1c(Cl)cnn1CCC1CCN(C(=O)C2COCCO2)CC1 (centres unmarked) [Compound 206, 1-(2-(1-(1,4-dioxane-2-carbonyl)piperidin-4-yl)ethyl)-4-chloro-N-(3-fluoro-5-(thiophen-2-ylethynyl)pyridin-2-yl)-1H-pyrazole-5-carboxamide] | 310 |
| Cc1cc(C#Cc2ccccc2)cnc1NC(=O)c1c(Cl)cnn1[C@H]1C[C@@H](NC(=O)C(C)C)C1 [Compound 207, 4-chloro-1-(cis-3-isobutyramidocyclobutyl)-N-(3-methyl-5-(phenylethynyl)pyridin-2-yl)-1H-pyrazole-5-carboxamide] | 310 |
| CC(=O)N1CC[C@@H](Cn2ncc(Cl)c2C(=O)Nc2ncc(C#Cc3ccccc3)cc2C)[C@H](F)C1 [Compound 208, 1-(((3S,4S)-1-acetyl-3-fluoropiperidin-4-yl)methyl)-4-chloro-N-(3-methyl-5-(phenylethynyl)pyridin-2-yl)-1H-pyrazole-5-carboxamide] | 310 |
| Cc1cc(C#Cc2ccc(F)cc2)cnc1NC(=O)c1c(Cl)cnn1[C@H]1C[C@H](NC(=O)C(C)C)C1 [Compound 209, 4-chloro-N-(5-((4-fluorophenyl)ethynyl)-3-methylpyridin-2-yl)-1-(trans-3-isobutyramidocyclobutyl)-1H-pyrazole-5-carboxamide] | 310 |
| Cc1cc(C#Cc2ccccc2)cnc1NC(=O)c1c(Cl)cnn1C1CCOCC1 [Compound 210, 4-chloro-N-(3-methyl-5-(phenylethynyl)pyridin-2-yl)-1-(tetrahydro-2H-pyran-4-yl)-1H-pyrazole-5-carboxamide] | 320 |
| Cc1cc(C#Cc2ccccc2)cnc1NC(=O)c1c(Cl)cnn1C[C@H]1COCCO1 [Compound 211, (S)-1-((1,4-dioxan-2-yl)methyl)-4-chloro-N-(3-methyl-5-(phenylethynyl)pyridin-2-yl)-1H-pyrazole-5-carboxamide] | 320 |
| Cc1cc(C#Cc2ccccc2)cnc1NC(=O)c1c(Cl)cnn1C1CC2(C1)CN(C(=O)C(C)C)C2 [Compound 212, 4-chloro-1-(2-isobutyryl-2-azaspiro[3.3]heptan-6-yl)-N-(3-methyl-5-(phenylethynyl)pyridin-2-yl)-1H-pyrazole-5-carboxamide] | 330 |
| CC(C)(C)OC(=O)N[C@H]1C[C@H](n2ncc(Cl)c2C(=O)Nc2ncc(C#Cc3ccccc3)cc2F)C1 [Compound 214, tert-butyl (trans-3-(4-chloro-5-((3-fluoro-5-(phenylethynyl)pyridin-2-yl)carbamoyl)-1H-pyrazol-1-yl)cyclobutyl)carbamate] | 330 |
| CC(C)C(=O)N1CCC(Cn2ncc(Cl)c2C(=O)Nc2ncc(C#Cc3ccccc3)cc2F)C(F)(F)C1 (centres unmarked) [Compound 216, 4-chloro-1-((3,3-difluoro-1-isobutyrylpiperidin-4-yl)methyl)-N-(3-fluoro-5-(phenylethynyl)pyridin-2-yl)-1H-pyrazole-5-carboxamide] | 330 |
| O=C(Nc1ncc(C#Cc2ccccc2)cc1F)c1c(Cl)cnn1CC1CCOC1 (centres unmarked) [Compound 217, 4-chloro-N-(3-fluoro-5-(phenylethynyl)pyridin-2-yl)-1-((tetrahydrofuran-3-yl)methyl)-1H-pyrazole-5-carboxamide] | 340 |
| CO[C@@H](C)Cn1ncc(Cl)c1C(=O)Nc1ncc(C#Cc2ccccc2)cc1C [Compound 218, (S)-4-chloro-1-(2-methoxypropyl)-N-(3-methyl-5-(phenylethynyl)pyridin-2-yl)-1H-pyrazole-5-carboxamide] | 340 |
| Cc1cc(C#Cc2ccccc2)cc(F)c1NC(=O)c1c(Cl)cnn1C[C@H]1CCOC1 [Compound 219, (R)-4-chloro-N-(2-fluoro-6-methyl-4-(phenylethynyl)phenyl)-1-((tetrahydrofuran-3-yl)methyl)-1H-pyrazole-5-carboxamide] | 340 |
| Cc1cc(C#Cc2ccccc2)cnc1NC(=O)c1c(Cl)cnn1C1CCN(C(=O)C(C)(C)C)CC1 [Compound 220, 4-chloro-N-(3-methyl-5-(phenylethynyl)pyridin-2-yl)-1-(1-pivaloylpiperidin-4-yl)-1H-pyrazole-5-carboxamide] | 340 |
| CC(C)(C)OC(=O)N[C@@H]1CC[C@@H](n2ncc(Cl)c2C(=O)Nc2ncc(C#Cc3ccccc3)cc2F)C1 [Compound 221, tert-butyl ((1R,3R)-3-(4-chloro-5-((3-fluoro-5-(phenylethynyl)pyridin-2-yl)carbamoyl)-1H-pyrazol-1-yl)cyclopentyl)carbamate] | 340 |
| Cc1cc(C#Cc2ccccc2)cnc1NC(=O)c1c(Cl)cnn1C[C@@H]1CCN(C(=O)C(C)C)C[C@H]1F [Compound 222, 4-chloro-1-(((3S,4S)-3-fluoro-1-isobutyrylpiperidin-4-yl)methyl)-N-(3-methyl-5-(phenylethynyl)pyridin-2-yl)-1H-pyrazole-5-carboxamide] | 340 |
| Cc1cc(C#Cc2ccc(F)cc2)cnc1NC(=O)c1c(Cl)cnn1CC1CCCN(C(=O)C2COCCO2)C1 (centres unmarked) [Compound 223, 1-((1-(1,4-dioxane-2-carbonyl)piperidin-3-yl)methyl)-4-chloro-N-(5-((4-fluorophenyl)ethynyl)-3-methylpyridin-2-yl)-1H-pyrazole-5-carboxamide] | 340 |
| Cc1cc(C#Cc2ccccc2)cnc1NC(=O)c1c(Cl)cnn1[C@@H]1CCOC1 [Compound 224, (R)-4-chloro-N-(3-methyl-5-(phenylethynyl)pyridin-2-yl)-1-(tetrahydrofuran-3-yl)-1H-pyrazole-5-carboxamide] | 750 |
| CC(C)(C)OC(=O)N1CCCC(n2ncc(Cl)c2C(=O)Nc2ncc(C#Cc3ccccc3)cc2F)CC1 (centres unmarked) [Compound 225, tert-butyl 4-(4-chloro-5-((3-fluoro-5-(phenylethynyl)pyridin-2-yl)carbamoyl)-1H-pyrazol-1-yl)azepane-1-carboxylate] | 350 |
| Cc1cc(C#Cc2ccccc2F)cnc1NC(=O)c1c(Cl)cnn1CCC1CCN(C(=O)C2CC2)CC1 [Compound 226, 4-chloro-1-(2-(1-(cyclopropanecarbonyl)piperidin-4-yl)ethyl)-N-(5-((2-fluorophenyl)ethynyl)-3-methylpyridin-2-yl)-1H-pyrazole-5-carboxamide] | 350 |
| O=C(Nc1ncc(C#Cc2ccccc2)cc1F)c1c(Cl)cnn1-c1ccc2c(c1)OCO2 [Compound 227, 1-(benzo[d][1,3]dioxol-5-yl)-4-chloro-N-(3-fluoro-5-(phenylethynyl)pyridin-2-yl)-1H-pyrazole-5-carboxamide] | 350 |
| CC(=O)N1CCC(F)(Cn2ncc(Cl)c2C(=O)Nc2ncc(C#Cc3ccccc3)cc2F)CC1 [Compound 228, 1-((1-acetyl-4-fluoropiperidin-4-yl)methyl)-4-chloro-N-(3-fluoro-5-(phenylethynyl)pyridin-2-yl)-1H-pyrazole-5-carboxamide] | 350 |
| Cc1cc(C#Cc2ccc(F)cc2)cnc1NC(=O)c1c(Cl)cnn1C1CCN(C(=O)C2CC2)C1 (centres unmarked) [Compound 229, 4-chloro-1-(1-(cyclopropanecarbonyl)pyrrolidin-3-yl)-N-(5-((4-fluorophenyl)ethynyl)-3-methylpyridin-2-yl)-1H-pyrazole-5-carboxamide] | 350 |
| Cc1cc(C#Cc2ccc(F)cc2)cnc1NC(=O)c1c(Cl)cnn1C1CCN(C(=O)C2COCCO2)C1 (centres unmarked) [Compound 230, 1-(1-(1,4-dioxane-2-carbonyl)pyrrolidin-3-yl)-4-chloro-N-(5-((4-fluorophenyl)ethynyl)-3-methylpyridin-2-yl)-1H-pyrazole-5-carboxamide] | 350 |
| Cc1cc(C#Cc2ccccc2)cnc1NC(=O)c1c(Cl)cnn1CC1CCN(C(=O)C(C)C)CC1(F)F (centres unmarked) [Compound 231, 4-chloro-1-((3,3-difluoro-1-isobutyrylpiperidin-4-yl)methyl)-N-(3-methyl-5-(phenylethynyl)pyridin-2-yl)-1H-pyrazole-5-carboxamide] | 350 |
| Cc1cc(C#Cc2ccccc2)cnc1NC(=O)c1c(Cl)cnn1CC1CCOC1 (centres unmarked) [Compound 232, 4-chloro-N-(3-methyl-5-(phenylethynyl)pyridin-2-yl)-1-((tetrahydrofuran-3-yl)methyl)-1H-pyrazole-5-carboxamide] | 360 |

From patent publication US20240182445A1 (ONO PHARMACEUTICAL CO., LTD., priority 2019, published 2024)
